Data on one molecule can be found in PMC7496275, “Pentathiepins: A Novel Class of Glutathione Peroxidase 1 Inhibitors that Induce Oxidative Stress, Loss of Mitochondrial Membrane Potential and Apoptosis in Human Cancer Cells” (Chemmedchem, 2020).

Data set [1] concerns human GPx. The data set can be described thus: GPx activity assay with human cancer cell lysates (SISO). Format: biochemical. Conditions: inhibitor at its IC50 for bovine GPx, 0.5 mM GSH. As for the experimental part: To investigate whether the pentathiepins have an inhibitory effect on human GPx, cell lysates of the human cervix cancer cell line SISO, which expresses high levels of GPx1 (see below), were incubated with either 4 or MSA in concentrations of the IC50 value for the inhibitory effect on bovine GPx1.
To measure the inhibition of human GPx activity, the enzyme assay was adapted to use human cancer cell lysates in place of the bovine enzyme. A quantity of 100 μg cellular protein (determined according to the Bradford method) per well was used. Due to the large consumption of cell lysates, just the inhibitory effect on GPx at one concentration of pentathiepin was determined in primary screening. The concentration of GSH was raised to a concentration of 0.5 mM to increase the velocity of the reaction, all other conditions were unchanged. The rates of NADPH oxidation were normalized to the solvent control. […] We used 100 μg protein of lysates and added GSH up to final concentrations between 0.375–3 mM. The rates of the GPx activity were calculated by nonlinear regression and the fitted with the GraphPad Prism 6.0 software: “Enzyme kinetics – Substrate vs. Velocity (Michaelis‐Menten)”.

Data set [2] has as its system HL-60 cells. The data set can be described thus: MTT cell viability assay. To be noted: Homo sapiens, 48 h, read-out: IC50 for viability reduction. The data set is classed as cell-based. As for the experimental part:
We determined IC50 values for the viability reduction in a low micro molar range (Figure 6B).
(§1) MTT cell viability assay: For the detection of the inhibition of the viability of cells by the pentathiepins, the MTT‐viability assay was used.37 Briefly, 10 000 and 20 000 cells for the suspension cell lines HL‐60 and Gumbus, respectively, were seeded out in 50 μL medium per well and immediately exposed to the compounds. For the adherent cell lines SISO and HAP‐1, 3000 and 5000 cells, respectively, were seeded out in 96‐well plates and allowed to attach for 24 h. Cells were exposed to nine serial dilutions of compound, added to the medium from 1000‐fold concentrated stock solution in DMF. For the controls, cells were exposed to 0.1 % DMF alone. After 48 h incubation, 20 μL of the MTT stock solution (2.5 mg/mL in PBS) were added to each well to give a final concentration of 1.0 mM. The formazan crystals that formed after 4 h at 37 °C were dissolved by sonification after adding 100 μL of 0.04 M HCl in isopropanol for the suspension cell lines, or with 50 μL DMSO after aspiration of the medium for the adherent cell lines. Optical density was measured with a SpectraMax Plus 383 microtiter plate read at λ=570 nm (Molecular Devices, USA). […]

Data set [3] concerns Gumbus cells. The data set can be described thus: Cell morphology after incubation. Format: cell-based, human. Conditions: 25 μM, 6 h.
Data set [4] has as its system HL-60 cells. The data set can be described thus: Cell morphology after incubation. To be noted: 25 μM, 6 h. The data set is classed as cell-based, human.
The subject of data set [5] is SISO cell line. Description: MTT viability with ferrostatin-1 co-treatment (ferroptosis probe). The data set is classed as cell-based, human. To be noted: ferrostatin-1 1.5-6.0 μM, MTT 48 h.
From the text: Another form of programmed cell death is ferroptosis, which is iron dependent and activated by lipid peroxidation (LPO) in the cell membrane.14 Unlike apoptosis, PARP cleavage is not observed in this cell death mechanism. GPx4, a membrane bound isoenzyme of GPx1, is believed to be a key protector of cells from ferroptosis by destroying lipid peroxides in the cell membrane.
as §1, with “The formazan crystals that formed after 4 h at 37 °C were dissolved by sonification after adding 100 μL of 0.04 M HCl in isopropanol for the suspension cell lines, or with 50 μL DMSO after aspiration of the medium for the adherent cell lines.” left out

In data set [6] the test system is SISO cells. Description: Fluorescence microscopy for lipid peroxidation (BODIPY 581/591). To be noted: 25 μM, 24 h. The data set is classed as cell-based, human. As for the experimental part:
In another set of experiments, LPO was visualized by fluorescence microscopy with a dye for lipid peroxides, BODIPY 581/591. […] Together, our results point to apoptosis and not ferroptosis as the mechanism of cell death induced by 4.
Fluorescence microscopy for the detection of lipid peroxidation: SISO cells (250 000 cells) were seeded out in 6‐well plates with an inserted coverslip. Cells were allow to attach for 24 h and then exposed to 25 μM 4 or 100 μM tert‐butyl‐hydroperoxide as a positive control. After 24 h coverslips were washed with PBS and stained with 1 μM BODIPY 581/591 in culture medium for 30 min. Cells on the coverslips were then mounted and examined with a Leica DMi8 fluorescence microscope at λ ex/em=460–500/512–542 nm for the oxidized BODIPY 581/591 and λ ex/em=540–581/592–668 for the reduced form.

Data set [7] in a line: Stability in presence of GSH by APCI-MS. The data set is classed as physicochemical. Conditions: 10 mM GSH, 23 °C, up to 1 h. Here is the method: (§2) It has been reported that pentathiepins are instable in the presence of thiols such as GSH.20 Thus, the stability of a representative pentathiepin, 4, in the presence of GSH was studied first by APCI‐MS. Incubations of 4 in the presence of 10 mM GSH, a biologically relevant concentration, were monitored at 23 °C for a period up to 1 h. […] Next, the stability of 4 was studied by RP‐HPLC in the same buffer and with the same GSH concentration (0.25 mM) used in the GPx assay (see below). Over the course of a 70 min incubation a nearly 30 % loss of the pentathiepin (Figure S32) was observed. However, since the GPx assay is only run for 20 min, the direct reaction between 4 and GSH would only account for a ca. 10 % loss of pentathiepin under assay conditions.

Data set [8] is described as follows: Stability in GPx assay buffer with GSH by RP-HPLC. The data set is classed as physicochemical. As for the experimental part: as §2
Melting points were determined with a Büchi Melting Point M‐565 or a Büchi 545 (Büchi, Flawil, CH), temperatures are uncorrected. ^1H NMR and ^13C NMR spectra were recorded either with a Bruker Avance II‐300 or an Avance II Ultrashield 400 MHz instrument. Chemical shifts δ are given in ppm and the solvent residual peak (CDCl3: ^1H, δ=7.27; ^13C, δ=77.0 and [D6]DMSO: ^1H, δ=2.50; ^13C, δ=40) was used as an internal standard with the quinoxaline derivatives while TMS was used for the indole derivatives. APCI‐MS (m/z) spectra were recorded on an Advion MS. […]

By IC50 is commonly meant the concentration that gives 50% inhibition. With `CCOc1c2c(c3cnc4cc(C)c(C)cc4n13)SSSSS2` [Compound 4], in data set [1], the “inhibition of GPx activity” value is recorded as “about 20%”. Also, in data set [2], the half-inhibitory concentration (IC50) came out at 6.9 µM. Also, the change in morphology result in data set [3] and in data set [4] was “membrane blebbing” throughout. Moreover, the “change of IC50 on co-treatment with ferrostatin-1” value in data set [5] was “No significant changes in the IC50 value”. The “lipid peroxidation (LPO)” value in data set [6] is listed as “no indication for LPO”. For the same molecule, the “stability in presence of GSH (mass spectrum)” value in data set [7] is “No changes in the mass spectrum”. Besides, the “loss of the pentathiepin” value in data set [8] (0.25 mM GSH in GPx assay buffer, 70 min, 23 °C, RP-HPLC) was roughly 30%. Further, in data set [8] (0.25 mM GSH, 20 min GPx assay duration), the “loss of pentathiepin under assay conditions” value was “ca. 10%”.
